Test results taken from patent publication US12448389B2, “BRM targeting compounds and associated methods of use” (Prelude Therapeutics Incorporated, priority 2020, dated 2025).

Tests used:
[1] = molecular target: T1, SMARCA2-HiBiT (Homo sapiens, UniProt P51531); experiment: SMARCA2 HiBiT degradation assay in HeLa cells; assay type: cell-based; conditions: 18 hours incubation; for DC50: read-out: HeLa_HiBit-SM2 DC50; for Dmax: HeLa, read-out: HeLa-HiBit-SM2 Dmax (%)
T1 construct: SMARCA2-HiBiT knock-in Hela monoclonal cell (CS302366); host or cells: HeLa monoclonal knock-in line (CRISPR HiBiT knock-in at the endogenous locus, heterozygous)
Description: (§1) HiBiT peptide knock-in of SMARCA2 in LgBiT expressing HEK293T cells was performed by CRISPR-mediated tagging system as described Promega. The homozygous HiBiT knock-in on c-terminus SMARCA2 was confirmed by sanger sequence. SMARCA2-HiBiT knock-in Hela monoclonal cell (CS302366) and SMARCA4-HiBiT knock-in Hela monoclonal cell (CS3023226) were purchased from Promega. The heterozygous HiBiT-knock-in was confirmed by sanger sequence in both SMARCA2-HiBiT and SMARCA4-HiBiT monoclonal cells.
(§2) SMARCA2 HiBiT and SMARCA4 HiBiT Degradation Assay in HeLa Cells
(§3) Dispense 10 ul aliquot of prepared Hela-SMARCA2-HiBiT or Hela-SMARCA4-HiBiT cells (1:1 ratio of cells:Trypan Blue (#1450013, Bio-Rad)) onto cell counting slide (#145-0011, Bio-Rad) and obtain cell density and cell viability using cell counter (TC20, Bio-Rad). Remove appropriate volume of resuspended cells from culture flask to accommodate 2500 cells/well @20 μL/well. Transfer Hela-HiBiT cells to 50 mL conical (#430290, Corning). Spin down at 1000 rpm for 5 min using tabletop centrifuge (SPINCHRON 15, Beckman). Discard supernatant and resuspend cell pellet in modified EMEM (#30-2003, ATCC) cell culture media containing 10% FBS (F2422-500ML, Sigma), and 1×Penicillin/Streptomycin (200 g/L) (30-002-CI, Corning) to a cell density of 125,000 cells/mL. Dispense 20 μL of resuspended Hela-HiBit cells per well in 384-well TC treated plate (#12-565-343, Thermo Scientific) using standard cassette (#50950372, Thermo Scientific) on Multidrop Combi (#5840310, Thermo Scientific) inside laminar flow cabinet. Dispense test compounds onto plates using digital liquid dispenser (D300E, Tecan). Incubate plates in humidified tissue culture incubator @37° C. for 18 hours. Add 20 μL of prepared Nano-Glo® HiBiT Lytic detection buffer (N3050, Promega) to each well of 384-well plate using small tube cassette (#24073295, Thermo Scientific) on Multidrop Combi, incubate @RT for 30-60 min. Read plates on microplate reader (Envision 2105, PerkinElmer) using 384 well Ultra-Sensitive luminescence mode. Raw data files and compound information reports are swept into centralized data lake and deconvoluted using automated scripts designed by TetraScience, Inc. Data analysis, curve-fitting and reporting done in Dotmatics Informatics Suite using Screening Ultra module.

[2] = molecular target: T2, SMARCA4-HiBiT (Homo sapiens, UniProt P51532); experiment: SMARCA4 HiBiT degradation assay in HeLa cells; assay type: cell-based; conditions: 18 hours incubation; for DC50: read-out: HeLa-HiBit-SM4 DC50; for Dmax: HeLa, read-out: HeLa-HiBit-SM4 Dmax (%)
T2 construct: SMARCA4-HiBiT knock-in Hela monoclonal cell (CS3023226); host or cells: HeLa monoclonal knock-in line (CRISPR HiBiT knock-in at the endogenous locus, heterozygous)
Description: as §1, §2, §3

T2 sequence (P51532 whole entry): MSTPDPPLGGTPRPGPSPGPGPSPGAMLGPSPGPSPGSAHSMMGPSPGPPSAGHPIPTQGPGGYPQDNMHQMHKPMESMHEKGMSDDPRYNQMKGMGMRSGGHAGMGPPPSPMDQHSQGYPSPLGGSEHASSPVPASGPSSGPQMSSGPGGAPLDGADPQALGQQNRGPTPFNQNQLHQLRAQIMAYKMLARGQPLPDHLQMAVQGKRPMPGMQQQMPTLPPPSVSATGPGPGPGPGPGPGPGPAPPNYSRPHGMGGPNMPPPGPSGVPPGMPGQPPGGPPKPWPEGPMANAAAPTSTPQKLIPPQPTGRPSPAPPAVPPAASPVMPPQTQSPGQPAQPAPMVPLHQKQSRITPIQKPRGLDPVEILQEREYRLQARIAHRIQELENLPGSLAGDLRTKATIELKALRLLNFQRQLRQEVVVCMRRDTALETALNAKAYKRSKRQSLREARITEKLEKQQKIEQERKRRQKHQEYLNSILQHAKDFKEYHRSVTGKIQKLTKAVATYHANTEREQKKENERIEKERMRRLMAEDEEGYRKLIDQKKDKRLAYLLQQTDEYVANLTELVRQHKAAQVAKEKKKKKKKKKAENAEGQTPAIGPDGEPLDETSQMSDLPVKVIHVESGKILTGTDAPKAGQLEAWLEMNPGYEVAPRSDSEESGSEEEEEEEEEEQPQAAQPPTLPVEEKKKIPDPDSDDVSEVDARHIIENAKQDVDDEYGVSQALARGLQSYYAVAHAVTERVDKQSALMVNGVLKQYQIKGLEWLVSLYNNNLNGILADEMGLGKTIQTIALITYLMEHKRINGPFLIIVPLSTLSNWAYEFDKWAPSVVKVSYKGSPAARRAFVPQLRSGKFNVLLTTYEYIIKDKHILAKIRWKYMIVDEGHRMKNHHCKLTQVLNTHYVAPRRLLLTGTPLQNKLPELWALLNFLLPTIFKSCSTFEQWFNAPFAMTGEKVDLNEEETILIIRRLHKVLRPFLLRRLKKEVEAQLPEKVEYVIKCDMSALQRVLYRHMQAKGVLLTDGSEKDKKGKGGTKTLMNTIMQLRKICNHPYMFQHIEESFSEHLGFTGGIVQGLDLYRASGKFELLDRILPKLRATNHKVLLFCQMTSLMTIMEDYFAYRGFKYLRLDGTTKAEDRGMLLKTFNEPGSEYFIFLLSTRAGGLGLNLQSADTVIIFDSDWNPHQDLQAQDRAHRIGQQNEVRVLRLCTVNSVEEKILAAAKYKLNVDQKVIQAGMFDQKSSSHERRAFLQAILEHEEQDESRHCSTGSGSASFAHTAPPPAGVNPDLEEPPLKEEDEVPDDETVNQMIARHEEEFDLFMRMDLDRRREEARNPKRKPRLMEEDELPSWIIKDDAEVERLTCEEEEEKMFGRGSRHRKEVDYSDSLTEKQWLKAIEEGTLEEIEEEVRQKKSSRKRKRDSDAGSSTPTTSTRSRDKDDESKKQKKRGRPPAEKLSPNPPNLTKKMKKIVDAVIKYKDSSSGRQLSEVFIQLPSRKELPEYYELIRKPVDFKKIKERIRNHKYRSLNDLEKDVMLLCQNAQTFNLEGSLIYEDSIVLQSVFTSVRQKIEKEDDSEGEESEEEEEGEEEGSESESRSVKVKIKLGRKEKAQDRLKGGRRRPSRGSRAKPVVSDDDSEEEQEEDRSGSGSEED
T1 sequence (P51531 whole entry): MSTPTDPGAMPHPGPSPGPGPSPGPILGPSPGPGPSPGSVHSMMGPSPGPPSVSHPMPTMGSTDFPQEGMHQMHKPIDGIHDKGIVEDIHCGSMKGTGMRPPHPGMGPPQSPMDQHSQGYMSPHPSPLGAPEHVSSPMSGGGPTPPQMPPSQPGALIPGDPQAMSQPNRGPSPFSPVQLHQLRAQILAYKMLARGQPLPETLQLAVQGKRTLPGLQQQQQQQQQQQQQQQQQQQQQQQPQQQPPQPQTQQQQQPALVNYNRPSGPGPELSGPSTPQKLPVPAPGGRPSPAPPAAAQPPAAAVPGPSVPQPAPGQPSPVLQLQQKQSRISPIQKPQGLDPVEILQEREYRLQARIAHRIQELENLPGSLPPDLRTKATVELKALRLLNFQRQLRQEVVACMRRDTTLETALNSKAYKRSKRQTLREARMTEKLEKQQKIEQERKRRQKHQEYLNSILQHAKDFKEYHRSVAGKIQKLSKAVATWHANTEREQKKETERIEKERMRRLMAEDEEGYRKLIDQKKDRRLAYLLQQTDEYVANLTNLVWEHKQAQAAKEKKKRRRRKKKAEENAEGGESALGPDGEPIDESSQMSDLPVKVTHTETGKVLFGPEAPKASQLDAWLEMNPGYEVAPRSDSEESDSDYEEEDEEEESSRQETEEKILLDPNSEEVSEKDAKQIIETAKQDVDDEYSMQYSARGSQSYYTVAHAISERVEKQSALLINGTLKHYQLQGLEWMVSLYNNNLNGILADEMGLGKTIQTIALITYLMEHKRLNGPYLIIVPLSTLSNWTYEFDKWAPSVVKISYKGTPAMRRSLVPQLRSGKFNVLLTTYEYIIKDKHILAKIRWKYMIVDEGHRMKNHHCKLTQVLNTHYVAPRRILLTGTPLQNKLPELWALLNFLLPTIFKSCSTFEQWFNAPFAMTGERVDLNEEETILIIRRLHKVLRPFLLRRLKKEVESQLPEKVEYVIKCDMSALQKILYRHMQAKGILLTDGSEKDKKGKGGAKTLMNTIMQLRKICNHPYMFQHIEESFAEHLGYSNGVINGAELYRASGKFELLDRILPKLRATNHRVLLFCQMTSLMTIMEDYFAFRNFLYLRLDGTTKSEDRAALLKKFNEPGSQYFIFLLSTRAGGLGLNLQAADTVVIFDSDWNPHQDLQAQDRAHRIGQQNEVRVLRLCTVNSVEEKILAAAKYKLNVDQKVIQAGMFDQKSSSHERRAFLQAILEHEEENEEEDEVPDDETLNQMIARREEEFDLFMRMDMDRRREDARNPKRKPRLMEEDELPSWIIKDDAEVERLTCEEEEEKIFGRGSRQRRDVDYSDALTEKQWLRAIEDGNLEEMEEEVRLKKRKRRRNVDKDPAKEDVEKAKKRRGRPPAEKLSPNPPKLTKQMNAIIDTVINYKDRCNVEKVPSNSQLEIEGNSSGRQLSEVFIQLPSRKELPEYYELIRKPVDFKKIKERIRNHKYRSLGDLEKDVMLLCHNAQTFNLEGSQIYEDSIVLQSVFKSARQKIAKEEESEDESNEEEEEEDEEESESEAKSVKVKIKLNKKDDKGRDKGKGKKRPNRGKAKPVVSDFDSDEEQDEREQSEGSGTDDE

DC50 [1] [µM]	Dmax [1] [%]	DC50 [2] [µM]	Dmax [2] [%]	SMILES
< 0.01	> 85	< 0.01	> 85	CC1(C)CN(CC2CCN(c3ccc4c(c3)C(=O)N(C3CCC(=O)NC3=O)C4=O)CC2)CCC1CN1CCN2c3cc(-c4ccccc4O)nnc3NC[C@H]2C1 (stereo partly drawn) [Example 257, 2-(2,6-dioxopiperidin-3-yl)-5-(4-((4-(((S)-2-(2-hydroxyphenyl)-5,6,6a,7,9,10-hexahydro-8H-pyrazino[1′,2′:4,5]pyrazino[2,3-c]pyridazin-8-yl)methyl)-3,3-dimethylpiperidin-1-yl)methyl)piperidin-1-yl)isoindoline-1,3-dione]
< 0.01	> 85	0.01 to 0.1	75 to 85	CC1CN(CC2CCN(C(=O)N3CCN4c5cc(-c6ccccc6O)nnc5NC[C@H]4C3)CC2)CCN1c1ccc2c(c1)C(=O)N(C1CCC(=O)NC1=O)C2=O (stereo partly drawn) [Example 272, 2-(2,6-dioxopiperidin-3-yl)-5-(4-((1-((S)-2-(2-hydroxyphenyl)-6,6a,7,8,9,10-hexahydro-5H-pyrazino[1′,2′:4,5]pyrazino[2,3-c]pyridazine-8-carbonyl)piperidin-4-yl)methyl)-2-methylpiperazin-1-yl)isoindoline-1,3-dione]
< 0.01	> 85	< 0.01	> 85	COC1(CN2CCN3c4cc(-c5ccccc5O)nnc4NC[C@H]3C2)CCN(CC2CCN(c3ccc4c(c3)CN(C3CCC(=O)NC3=O)C4=O)CC2)CC1 (stereo partly drawn) [Example 251, 3-(5-(4-((4-(((S)-2-(2-hydroxyphenyl)-5,6,6a,7,9,10-hexahydro-8H-pyrazino[1′,2′:4,5]pyrazino[2,3-c]pyridazin-8-yl)methyl)-4-methoxypiperidin-1-yl)methyl)piperidin-1-yl)-1-oxoisoindolin-2-yl)piperidine-2,6-dione]
< 0.01	75 to 85	0.01 to 0.1	75 to 85	O=C1CCC(N2C(=O)c3ccc(Nc4cccc(N5CCC(N6CCN7c8cc(-c9ccccc9O)nnc8NC[C@H]7C6)CC5)c4)cc3C2=O)C(=O)N1 (stereo partly drawn) [Example 244, 2-(2,6-dioxopiperidin-3-yl)-5-((3-(4-((S)-2-(2-hydroxyphenyl)-5,6,6a,7,9,10-hexahydro-8H-pyrazino[1′,2′:4,5]pyrazino[2,3-c]pyridazin-8-yl)piperidin-1-yl)phenyl)amino)isoindoline-1,3-dione]
< 0.01	75 to 85	0.01 to 0.1	75 to 85	O=C1CCC(N2C(=O)c3ccc(N4CCC(CN5CCC(CN6CCN7c8cc(-c9ccccc9O)nnc8NC[C@H]7C6)C(F)(F)C5)CC4)cc3C2=O)C(=O)N1 (stereo partly drawn) [Example 260, 5-(4-((3,3-difluoro-4-(((S)-2-(2-hydroxyphenyl)-5,6,6a,7,9,10-hexahydro-8H-pyrazino[1′,2′:4,5]pyrazino[2,3-c]pyridazin-8-yl)methyl)piperidin-1-yl)methyl)piperidin-1-yl)-2-(2,6-dioxopiperidin-3-yl)isoindoline-1,3-dione]
< 0.01	> 85	< 0.01	> 85	COC1(CN2C[C@@H]3[C@@H](CN4CCN5c6cc(-c7ccccc7O)nnc6NC[C@H]5C4)[C@@H]3C2)CCN(c2ccc3c(c2)C(=O)N(C2CCC(=O)NC2=O)C3)CC1 (stereo partly drawn) [Example 252, 3-(6-(4-(((1R,5S,6s)-6-(((S)-2-(2-hydroxyphenyl)-5,6,6a,7,9,10-hexahydro-8H-pyrazino[1′,2′:4,5]pyrazino[2,3-c]pyridazin-8-yl)methyl)-3-azabicyclo[3.1.0]hexan-3-yl)methyl)-4-methoxypiperidin-1-yl)-1-oxoisoindolin-2-yl)piperidine-2,6-dione]
< 0.01	> 85	< 0.01	50 to 75	O=C1CC[C@@H](N2Cc3cc(OCCN4CCC(N5CCN6c7cc(-c8ccccc8O)nnc7NC[C@H]6C5)CC4)ccc3C2=O)C(=O)N1 [Example 239, (R)-3-(5-(2-(4-((S)-2-(2-hydroxyphenyl)-5,6,6a,7,9,10-hexahydro-8H-pyrazino[1′,2′:4,5]pyrazino[2,3-c]pyridazin-8-yl)piperidin-1-yl)ethoxy)-1-oxoisoindolin-2-yl)piperidine-2,6-dione]

More lines, now with the values behind:

SMILES	DC50 [1] [µM]	Dmax [1] [%]	DC50 [2] [µM]	Dmax [2] [%]
O=C1CCC(N2C(=O)c3ccc(N4CCC(CN5C[C@@H]6[C@H](C5)[C@H]6CN5CCN6c7cc(-c8ccccc8O)nnc7NC[C@H]6C5)CC4)cc3C2=O)C(=O)N1 (stereo partly drawn) [Example 42, 2-(2,6-dioxopiperidin-3-yl)-5-(4-(((1R,5S,6r)-6-(((S)-2-(2-hydroxyphenyl)-5,6,6a,7,9,10-hexahydro-8H-pyrazino[1′,2′:4,5]pyrazino[2,3-c]pyridazin-8-yl)methyl)-3-azabicyclo[3.1.0]hexan-3-yl)methyl)piperidin-1-yl)isoindoline-1,3-dione]	< 0.01	> 85	< 0.01	50 to 75
O=C1CCC(N2C(=O)c3ccc(N4CCCC5(CCN(CCN6CCN7c8cc(-c9ccccc9O)nnc8NC[C@H]7C6)CC5)C4)cc3C2=O)C(=O)N1 (stereo partly drawn) [Example 94, 2-(2,6-dioxopiperidin-3-yl)-5-(9-(2-((S)-2-(2-hydroxyphenyl)-5,6,6a,7,9,10-hexahydro-8H-pyrazino[1′,2′:4,5]pyrazino[2,3-c]pyridazin-8-yl)ethyl)-2,9-diazaspiro [5.5]undecan-2-yl) isoindoline-1,3-dione]	< 0.01	50 to 75	< 0.01	50 to 75
O=C1CCC(N2Cc3ccc(N4CCN(CCCN5CCC(CN6CCN7c8cc(-c9ccccc9O)nnc8NC[C@H]7C6)CC5)CC4)cc3C2=O)C(=O)N1 (stereo partly drawn) [Example 121, 3-(6-(4-(3-(4-(((S)-2-(2-hydroxyphenyl)-5,6,6a,7,9,10-hexahydro-8H-pyrazino[1′,2′:4,5]pyrazino[2,3-c]pyridazin-8-yl)methyl)piperidin-1-yl)propyl)piperazin-1-yl)-1-oxoisoindolin-2-yl)piperidine-2,6-dione]	< 0.01	> 85	0.01 to 0.1	75 to 85
O=C1CCC(N2C(=O)c3cc(F)c(N4CCC(CN5CCC(CN6CCN7c8cc(-c9ccccc9O)nnc8NC[C@H]7C6)CC5)CC4)cc3C2=O)C(=O)N1 (stereo partly drawn) [Example 164, 2-(2,6-dioxopiperidin-3-yl)-5-fluoro-6-[4-[[4-[[(10S)-4-(2-hydroxyphenyl)-1,5,6,8,12-pentazatricyclo[8.4.0.02,7]tetradeca-2,4,6-trien-12-yl]methyl]piperidin-1-yl]methyl]piperidin-1-yl]isoindole-1,3-dione]	< 0.01	> 85	< 0.01	75 to 85
O=C1CCC(N2C(=O)c3ccc(N4CCC(CN5CC6CC(CN7CCN8c9cc(-c%10ccccc%10O)nnc9NC[C@H]8C7)C6C5)CC4)cc3C2=O)C(=O)N1 (stereo partly drawn) [Example 177, 2-(2,6-dioxopiperidin-3-yl)-5-[4-[[6-[[(10S)-4-(2-hydroxyphenyl)-1,5,6,8,12-pentazatricyclo[8.4.0.02,7]tetradeca-2,4,6-trien-12-yl]methyl]-3-azabicyclo[3.2.0]heptan-3-yl]methyl]piperidin-1-yl]isoindole-1,3-dione]	< 0.01	> 85	< 0.01	50 to 75
O=C1CCC(N2C(=O)c3ccc(N4CC[C@H](CN5C[C@@H]6[C@H](C5)[C@H]6CN5CCN6c7cc(-c8ccccc8O)nnc7NC[C@H]6C5)[C@H](F)C4)cc3C2=O)C(=O)N1 (stereo partly drawn) [Example 186, 2-(2,6-dioxopiperidin-3-yl)-5-[(3S,4R)-3-fluoro-4-[[(1S,5R)-6-[[(10S)-4-(2-hydroxyphenyl)-1,5,6,8,12-pentazatricyclo[8.4.0.02,7]tetradeca-2(7),3,5-trien-12-yl]methyl]-3-azabicyclo[3.1.0]hexan-3-yl]methyl]piperidin-1-yl]isoindole-1,3-dione]	< 0.01	75 to 85	< 0.01	50 to 75
